Results as given in patent US20240141408A1, “CELL-BASED ASSAY FOR IDENTIFICATION OF ACTIVATORS OF GAMMA-SECRETASE” (The Brigham and Women’s Hospital, Inc., priority 2021, published 2024).

tested on: γ-secretase; test: Notch target gene reporter (Hes1-Luc / NotchΔE) luciferase assay in stable MEFs; format: cell-based, mouse; conditions: L435F KI/+ stable cells, clone A23; FIG. 4
Protocol: For screening, cells were seeded in 384-well plates using Thermo Multidrop Combi at a density of 2,500 cells in 30 μl media and compounds were transferred by Seiko Compound Transfer Robot on the same day. For dose response, compounds were dispensed via the Hewlett Packard D300.
The steady glo luciferase assay system (Promega) was used to determine firefly luciferase activity per manufacturer's instructions. Luciferase activity was detected 24 hours after transfection using a plate reader (Perkin Elmer EnVision).
MEFs (1.5×10^6) were seeded in two 10-cm tissue culture plates; one to be used as a negative control. The next day, one plate is transfected with 9 μg CMV-NotchΔE (neomycin) and […] Hes1Luciferase (hygromycin) plasmids. 24-hours later, cells in both plates were passaged 1:100, 1:200 and 1:1000 and maintained in DMEM media supplied with 10% FBS, 100 ug/ml Hygromycin, and 200 μg/ml G418. Media was changed every 3 days and cells were checked daily ensuring that cells in the untransfected plates (negative control) have died. Within two weeks, hygromycin/G418 resistant colonies were formed with a diameter of approximately 5 mm. Each clone was transferred into a separate well of a 24-well plate. When confluent, MEFs were transferred into 6-well plates then into 10 cm dishes. For each clone, some cells were frozen while others harvested to test luciferase and notchΔE expression via luciferase assay, western blot and Q-RT-PCR.
For the identification of compounds that could increase the activity of γ-secretase, a Notch target gene reporter system was created. It contains two plasmids: Hes1 proximal promoter containing two Notch responsive CBF1/RBPJκ binding sites driving expression of a firefly luciferase in a hygromycin resistant plasmid (Hes1-Luc-Hygro), and CMV promoter and NotchΔE cloned in a neomycin resistant plasmid (CMV-NΔE-Neo) (FIG. 1A).
For the identification of compounds that could increase γ-secretase activity, L435F KI/+ stable cells expressing both CMV-NΔE-Neo and Hes1-Luc-hygro were generated. Luciferase expression in the selected clones was confirmed via a luciferase assay (FIG. 3A). We also performed quantitative RTPCR using primers specific for luciferase and Notch-cMyc to confirm their expression (FIG. 3B-C).
After generating the stable cells, 384-well plates were optimized in the EnVision plate reader for plate dimension, and crosstalk correction. To provide a robust (high Z′ factor) HTS-compatible assay, four clones expressing different levels of NotchΔE and luciferase (FIG. 3A-C, black arrows) were compared to identify the maximum difference in signal between DMSO, and DAPT (γ-secretase inhibitor), as well as genetic positive (a clone expressing high levels of luciferase) controls. […]

luciferase activity	SMILES
reduction of luciferase activity	C[C@H](NC(=O)Cc1cc(F)cc(F)c1)C(=O)N[C@H](C(=O)OC(C)(C)C)c1ccccc1 [DAPT]
lesser effect	COc1ccc2c(c1)c(CC(=O)O)c(C)n2C(=O)c1ccc(Cl)cc1 [Indomethacin]
reduction of luciferase activity	CC(C)C[C@H](NC(=O)[C@H](Cc1ccccc1)C[C@@H](O)[C@H](Cc1ccccc1)NC(=O)OC(C)(C)C)C(=O)N[C@@H](Cc1ccccc1)C(N)=O [L685,458]
lesser effect	C[C@@H](C(=O)O)c1ccc(-c2ccccc2)c(F)c1 [R-Flurbiprofen]
